Read-outs that look alike come from different tables or passages of the source.
Experiments:
Mth IMPDH ΔCBS [1] = target: T1, Mth IMPDH ΔCBS (Mycolicibacterium thermoresistibile, UniProt G7CNL4, R236G); test: Inhibition constants (Ki) and mode of inhibition against Mth IMPDH ΔCBS with respect to IMP and NAD+; type: biochemical, Mycobacterium thermoresistible; set-up: key to Pattern of inhibition with respect to IMP / Pattern of inhibition with respect to NAD: UC: Uncompetitive inhibition; conditions: for Pattern of inhibition with respect to IMP / Pattern of inhibition with respect to NAD: UC = uncompetitive; for Pattern of inhibition with respect to IMP / IMP αKi: with respect to IMP; for IMP αKi: fixed saturating NAD+ ([…]); for Pattern of inhibition with respect to NAD / NAD αKi: with respect to NAD+; for NAD αKi: constant saturating IMP (1 mM)
Method: The inhibition constant [Ki] with respect to both substrates IMP and NAD^+ was determined by assaying various concentrations of each inhibitor with five different concentrations of substrate and a fixed saturating concentration of the cosubstrate.
(§1) The initial velocities at various inhibitor concentrations were determined based on the slope in the linear part of each reaction containing the inhibitor and the uninhibited reaction. To determine the inhibition constant (Ki values), the initial rate data versus substrate concentration at different inhibitor concentrations were fit using Prism software (GraphPad) to equations for uncompetitive or mixed inhibition. For each inhibitor concentration, the reciprocal of enzyme reaction velocity versus the reciprocal of the substrate concentration was plotted in a Lineweaver–Burk plot to determine the pattern of inhibition.

full-length Mtb IMPDH = full-length Mtb IMPDH (Mycobacterium tuberculosis, UniProt P9WKI7); test: Inhibition constants toward full-length Mtb IMPDH; type: biochemical
Method: as §1

Mth IMPDH ΔCBS [2] = target: T1, Mth IMPDH ΔCBS; type: biochemical, Mycobacterium thermoresistible; conditions: SAR statement in text
[3] = IMP as the substrate, read-out: Ki with IMP as the substrate
[4] = NAD as the substrate, read-out: Ki with NAD as the substrate

Row | Structure (SMILES) | Pattern of inhibition with respect to IMP (Mth IMPDH ΔCBS [1]) | IMP αKi (Mth IMPDH ΔCBS [1]) [µM] | Pattern of inhibition with respect to NAD (Mth IMPDH ΔCBS [1]) | NAD αKi (Mth IMPDH ΔCBS [1]) [µM] | Ki (full-length Mtb IMPDH; [3]) [µM] | Ki (full-length Mtb IMPDH; [4]) [µM] | Mth IMPDH ΔCBS inhibitory activity (in words) (Mth IMPDH ΔCBS [2])
1 | CC(=O)Nc1cc(C)ccc1O [Compound 18] | uncompetitive and UC | 554 ± 70 | UC | 452 ± 26 |  |  | 
2 | CC(Oc1ccc(-c2cn(C)cn2)cc1)C(=O)Nc1nc(-c2ccc(Br)cc2)c[nH]1 (centres unmarked) [Compound 31, N-(4-(4-Bromophenyl)-1H-imidazol-2-yl)-2-(4-(1-methyl-1H-imidazol-4-yl)phenoxy)propanamide] | uncompetitive | 0.30 ± 0.02 | uncompetitive | 0.20 ± 0.01 | 0.61 ± 0.05 | 0.39 ± 0.02 | 
3 | CC(C)NC(=O)CSc1nc(-c2ccccc2)c[nH]1 [Compound 26, N-Isopropyl-2-((4-phenyl-1H-imidazol-2-yl)thio)acetamide] |  |  |  |  |  |  | complete loss of activity
4 | CC(Oc1ccc(-c2cn(C)cn2)cc1)C(=O)Nc1ccccc1 (centres unmarked) [Compound 34, 2-(4-(1-Methyl-1H-imidazol-4-yl)phenoxy)-N-phenylpropanamide] |  |  |  |  |  |  | complete loss of activity
5 | Cc1ccc(-c2nc(C(=O)O)cs2)cc1 [Compound 16] | Mixed |  | UC | 525 ± 64 |  |  | 
6 | CC1(C)Cc2cccc(CO)c2O1 [Compound 19] | Mixed | 126 ± 34 | UC | 355 ± 47 |  |  | 
7 | Oc1ccc2ccc(O)cc2c1 [Compound 11] | uncompetitive and UC | 361 ± 53 | UC | 310 ± 30 |  |  | 
8 | O=C(O)c1cc2sccc2s1 [Compound 14] | Mixed | 238 ± 6 | UC | 262 ± 39 |  |  | 
9 | COc1ccc(OC(C)C(=O)Nc2ccc(I)cc2)cc1 (centres unmarked) [Compound 1, reference compound] | uncompetitive and UC |  | uncompetitive and UC | 0.55 ± 0.02 |  |  | 
10 | O=C(O)CSc1nc(-c2ccccc2)c[nH]1 [Compound 28, 2-((4-Phenyl-1H-imidazol-2-yl)thio)acetic Acid] |  |  |  |  |  |  | complete loss in activity
11 | Brc1ccc(-c2c[nH]cn2)cc1 [Compound 2] | uncompetitive and UC | 609 ± 3 | uncompetitive and UC | 512 ± 23 | 572 ± 14 | 534 ± 18 | 
12 | O=C(O)CSc1nc(-c2ccc(Br)cc2)c[nH]1 [Compound 27, 2-((4-(4-Bromophenyl)-1H-imidazol-2-yl)thio)acetic Acid] |  |  |  |  |  |  | complete loss in activity
